Experimental data from patent US10919941B2, “Functional lipid constructs” (KODE BIOTECH LIMITED, priority 2007, dated 2021).
No end group written: not given here.

What was measured:
Assay type in all cases: cell-based, human
[1] = test system: Miltenberger antibody positive sera; experiment: BioVue AHG card column agglutination serology of modified red blood cells; parameters: key: 0 or ‘−’ no agglutination; 0 or ‘−’ no agglutination; 1+ or 3=very weak agglutination; 1+ or 3=very weak agglutination; 2+ or 5=weak agglutination; 2+ or 5=weak agglutination; 3+ or 8=moderate strong agglutination; 3+ or 8=moderate strong agglutination; 4+ or 10/12=strong agglutination; 4+ or 10/12=strong agglutination; 4+ or 10/12=strong agglutination
[2] = test system: sera reactive with modified RBCs; experiment: Neutralisation of reactive sera with free peptide, retested against modified RBCs (BioVue); parameters: key: 0 or ‘−’ no agglutination; 0 or ‘−’ no agglutination; 1+ or 3=very weak agglutination; 1+ or 3=very weak agglutination; 2+ or 5=weak agglutination; 2+ or 5=weak agglutination; 3+ or 8=moderate strong agglutination; 3+ or 8=moderate strong agglutination; 4+ or 10/12=strong agglutination; 4+ or 10/12=strong agglutination; 4+ or 10/12=strong agglutination; details: cells modified with the peptide-lipid construct M22; AHG test in BioVue
Source text: Optionally, where F is a peptide, the method includes the preliminary step of: • Adding an amount of the peptide to the sample of the serum; where the amount of the peptide is sufficient to neutralize non-specific agglutination or confirm specificity of the reactive antibody.

antibody negative serums = experiment: False positive reactions of modified RBCs with antibody negative serums/plasma; parameters: key to Reaction score BioVue AHG, PAC samples 1-46, 49, 50, 52, 53 / Reaction score BioVue AHG, PAC sample 47 / Reaction score BioVue AHG, PAC sample 48 / Reaction score BioVue AHG, PAC sample 51 / agglutination score, T series serum 2 / agglutination score, T series serum 42 / agglutination score, T series serum 63 / agglutination score, T series serum 62 / agglutination score, T series serum 7 / agglutination score, T series serum 20 / agglutination score, T series serum 48 / agglutination score, T series serum 22 / agglutination score, T series serum 39 / agglutination score, T series serum 23 / agglutination score, T series serum 30 / agglutination score, T series serum 4 / agglutination score, T series serum 31 / agglutination score, T series serum 44 / agglutination score, T series serum 61 / agglutination score, T series serum 18 / agglutination score, T series serum 21 / agglutination score, T series serum 28 / agglutination score, T series serum 55 / agglutination score, false positive serum T18 / agglutination score, false positive serum T21 / agglutination score, false positive serum T28 / agglutination score, false positive serum T55 / agglutination score, false positive serum T78 / agglutination score, false positive serum T92: 0 or ‘−’ no agglutination; 0 or ‘−’ no agglutination; 1+ or 3=very weak agglutination; 1+ or 3=very weak agglutination; 2+ or 5=weak agglutination; 2+ or 5=weak agglutination; 3+ or 8=moderate strong agglutination; 3+ or 8=moderate strong agglutination; 4+ or 10/12=strong agglutination; 4+ or 10/12=strong agglutination; 4+ or 10/12=strong agglutination
[3] = Australia, Melb Path, 45 tested, construct 50 μg/ml
[4] = Australia, RNSH, 500 tested, construct 50 μg/ml
[5] = Malaysia, UMMC, 749 tested, construct 50 μg/ml
[6] = Philippines, Metrop Hosp, 60 tested, construct 50 μg/ml
[7] = blood donor plasma, construct 50 μg/ml (2 hours, 37° C.)

With “M22: DOPE peptide-lipid construct: MUTK peptide SQTNDKHKRD, leader c, spacer CMG(2) (SQTNDKHKRDC; also: DOPE peptide-lipid construct via leader Cys, spacer CMG(2))” the “BioVue score vs TAP1” value ([1]; construct 50 μg/ml) was 8, the “BioVue score vs positive sample 2 T217 (T)” value ([1]; construct 50 μg/ml) was 0 and the “BioVue score vs positive sample 3 T165 (Mur)” value ([1]; construct 50 μg/ml) was 0. For the same substance, the “BioVue score vs positive sample 4 T7202 (M)” value ([1]; construct 50 μg/ml) was 0, the “BioVue score vs positive sample 8 T5896 (M + K + Mur)” value ([1]; construct 50 μg/ml) was 0 and the “TAP 2 Serum BioVue AHG score” value ([1]; construct 100 μg/ml) was 0. For the same substance, the “Pre-neutralisation serology, PAC74” value [2] was 8, the “Pre-neutralisation serology, TAP1” value [2] was 8 and the “% Positive, BioVue” value (antibody negative serums; Australia, CSL, 100 tested, construct 50 μg/ml) was 3.0%. The “Number Positive, BioVue” value (antibody negative serums; Australia, CSL, 100 tested, construct 50 μg/ml, 3 h RT then 18 h 4° C.) was 3, the “% Positive, BioVue” value (antibody negative serums; [3]) was 4.5% and the “Number Positive, BioVue” value (antibody negative serums; [3]) was 2. For the same substance, the “% Positive, BioVue” value (antibody negative serums; [4]) was 0.4%, the “% Positive, DiaMed” value (antibody negative serums; [4]) was 0.4% and the “Number Positive, BioVue” value (antibody negative serums; [4]) was 2. The “Number Positive, DiaMed” value (antibody negative serums; [4]) was 2, the “% Positive, BioVue” value (antibody negative serums; [5]) was 2.5% and the “Number Positive, BioVue” value (antibody negative serums; [5]) was 19. For the same substance, the “% Positive, Tube” value (antibody negative serums; [6]) was 0%, the “Number Positive, Tube” value (antibody negative serums; [6]) was 0 and the “Reaction score BioVue AHG, PAC sample 47” value (antibody negative serums; [7]) was 0. The “Reaction score BioVue AHG, PAC sample 48” value (antibody negative serums; [7]) was 0, the “Reaction score BioVue AHG, PAC sample 51” value (antibody negative serums; [7]) was 0 and the “Reaction score BioVue AHG, PAC samples 1-46, 49, 50, 52, 53” value (antibody negative serums; [7]) was 0. For the same substance, the “% False Positives” value (antibody negative serums; panel of blood donor plasma samples (PAC), BioVue AHG, construct 50 μg/ml) was 0%.
